Reference: BigSolDB 2.1

Nc1cccc(C(=O)O)c1O
solubility (mole fraction)
Details | 293.2 K | 298.2 K | 303.2 K | 308.2 K | 313.2 K
in ethanol | 0.000186 | 0.000238 | 0.000285 | 0.000332 | 0.000386
in water | 0.000113 | 0.000126 | 0.000141 | 0.00016 | 0.000178
